Source: patent US20150094321A1, “COMBINATION” (GlaxoSmithKline LLC, priority 2009, published 2015)

Key:
Test in all cases: Cell line proliferation study
Format in all cases: cell-based, human
[1] = system: BxPC3; conditions: BxPC3, pancreas; for IC50: Homo sapiens, BXPC-3, 72 hours, read-out: gIC50
Method: (§1) In a separate study, combination drug tests with Compounds A and B were conducted using a panel of cell lines from human colon cancers (n=26), lung cancers (n=15) and pancreatic cancers (n=6). Cell lines were obtained from commercial vendors (ATCC and DSMZ). Cell lines were grown in RPMI-1640 supplemented with 2 mM glutamine, 1 mM sodium pyruvate and 10% fetal bovine serum (except for Capan-1 and HuP-T4 which were grown with 20% fetal bovine serum) and maintained at 37° C. and 5% CO2 in a humid incubator. Assays were performed in 384 well microtiter plates with optimum seeding densities for each cell line.
(§2) The test compounds were prepared as 10 mM stocks in 100% DMSO. Further dilutions of the compounds were made in DMSO. Compound A was diluted horizontally in a separate 96 well microtiter plate in rows D-G using a 3-fold dilution series for 10 dilution points. Compound B was similarly diluted horizontally in a 96 well microtiter plate in rows B-E using a 3-fold dilution series for 10 dilution points.
(§3) The two compounds were combined using equal volumes from each drug plate into cell culture media. […] Both Compound A and Compound B were individually titrated in rows B and C (for Compound B) and rows F and G (for Compound A) of the merged drug plate.
(§4) A 1:10 dilution of the drugs was performed in cell culture media prior to addition to the cells.
(§5) The final concentration range for the test compounds was 250 to 0.013 nM for Compound A and 1000 to […] for Compound B. The positive control consisted of culture media with DMSO at 0.1% and cells. The negative control consisted of culture media with DMSO at 0.1%. The cell lines were incubated at 37° C., 5% CO2 in humid air for 72 hours. Cell proliferation was measured using the CellTiter Glo (Promega) reagent according to the manufacturer's protocol. The plates are treated with CellTiter Glo solution and are analyzed for RLU (relative light units) using a Molecular Devices SpectraMax M5 plate reader.
(§6) The percent intensity values were used in model 205 of XLfit (IDBS, Inc.) in Microsoft Excel to calculate gIC50 values using a 4 parameter logistical fit. The midpoint of the growth window (the gIC50) falls half way between the number of cells at the time of compound addition (T=0) and the growth of control cells treated with DMSO at 72 hrs. The number of cells at time zero (T0) is divided from the intensity value at the bottom of the response curve (Ymin) to generate a measure for cell death (Ymin/T0). A value below 1 for Ymin/T0 indicates stronger potency to induce cell death with the treatment when compared to higher values. […]

[2] = system: Colo205; conditions: Colo205, colon; for IC50: Homo sapiens, COLO 205, 72 hours, read-out: gIC50
Method: as §1, §2, §3, §4, §5, §6

[3] = system: NCIH23; conditions: NCIH23, lung; for IC50: Homo sapiens, NCI-H23, 72 hours, read-out: gIC50
Method: as §1, §2, §3, §4, §5, §6

[4] = system: SKMES1; conditions: SKMES1, lung; for IC50: Homo sapiens, SK-MES-1, 72 hours, read-out: gIC50
Method: as §1, §2, §3, §4, §5, §6

[5] = system: HCT8; conditions: HCT8, colon; for IC50: Homo sapiens, HCT-8, 72 hours, read-out: gIC50
Method: as §1, §2, §3, §4, §5
(§7) The percent intensity values were used in model 205 of XLfit (IDBS, Inc.) in Microsoft Excel to calculate gIC50 values using a 4 parameter logistical fit. The midpoint of the growth window (the gIC50) falls half way between the number of cells at the time of compound addition (T=0) and the growth of control cells treated with DMSO at 72 hrs. The number of cells at time zero (T0) is divided from the intensity value at the bottom of the response curve (Ymin) to generate a measure for cell death (Ymin/T0). A value below 1 for Ymin/T0 indicates stronger potency to induce cell death with the treatment when compared to higher values.
(§8) 1. Excess over Highest Single Agent (EOHSA)—This was calculated as described above (Borisy et al, 2003; FDA 21 CFR 300.50) 2. Bliss synergy—A second criterion often used to determine combination synergy is evaluating the excess inhibition over Bliss independence or “additivity” (Bliss and Mexico, 1939). The model assumes a combined response of the two compounds independently using the following:
(§9) Where Ea is the effect (or percent inhibition) of Compound A and Eb is the effect of Compound B. The resulting effect of the combination of the two compounds is compared to their predicted additivity by Bliss and a synergy score is generated for each dose along the response curve. 3. Combination Index (CI)—A third criterion traditionally used for the evaluation of synergy is Combination Index (CI) derived from the Chou and Talalay (1984). The following equation is a model used for compounds that behave with different mechanisms of action (mutually non-exclusive formula). This was calculated as described above.
(§10) For EOHSA and Bliss Synergy measures, a score is generated for each dose along the response curve. These scores reflect the percentage over the highest agent (EOHSA) or percentage greater than Bliss additivity, depending on which metric is being interpreted. […]

[6] = system: LS174T; conditions: colon; for IC50: Homo sapiens, 72 hours, read-out: gIC50
Method: as §1, §2, §3, §4, §5, §7, §8, §9, §10

[7] = system: NCIH2030; conditions: NCIH2030, lung; for IC50: Homo sapiens, NCI-H2030, 72 hours, read-out: gIC50
Method: as §1, §2, §3, §4, §5, §7, §8, §9, §10

[8] = system: NCIH2122; conditions: NCIH2122, lung; for IC50: Homo sapiens, NCI-H2122, 72 hours, read-out: gIC50
Method: as §1, §2, §3, §4, §5, §7, §8, §9, §10

[9] = system: SW1990; conditions: SW1990, pancreas; for IC50: Homo sapiens, 72 hours, read-out: gIC50
Method: as §1, §2, §3, §4, §5, §7, §8, §9, §10

[10] = system: SW48; conditions: SW48, colon; for IC50: Homo sapiens, 72 hours, read-out: gIC50
Method: as §1, §2, §3, §4, §5, §7, §8, §9, §10

[11] = system: SW900; conditions: SW900, lung; for IC50: Homo sapiens, 72 hours, read-out: gIC50
Method: as §1, §2, §3, §4, §5, §7, §8, §9, §10

[12] = system: T84; conditions: T84, colon; for IC50: Homo sapiens, 72 hours, read-out: gIC50
Method: as §1, §2, §3, §4, §5, §7, §8, §9, §10

[13] = system: WiDr; conditions: colon; for IC50: Homo sapiens, 72 hours, read-out: gIC50
Method: as §1, §2, §3, §4, §5, §7, §8, §9, §10

Structure (SMILES)	Ymin/T0 [1]	IC50 [1]	Ymin/T0 [2]	IC50 [2]	IC50 [3]	Ymin/T0 [3]	IC50 [4]	Ymin/T0 [4]	Ymin/T0 [5]	IC50 [5]	IC50 [6]	Ymin/T0 [6]	IC50 [7]	Ymin/T0 [7]	IC50 [8]	Ymin/T0 [8]	IC50 [9]	Ymin/T0 [9]	IC50 [10]	Ymin/T0 [10]	also measured
CC(=O)Nc1cccc(-n2c(=O)n(C3CC3)c(=O)c3c(Nc4ccc(I)cc4F)n(C)c(=O)c(C)c32)c1 [Compound A, N-{3-[3-cyclopropyl-5-(2-fluoro-4-iodo-phenylamino)-6,8-dimethyl-2,4,7-trioxo-3,4,6,7-tetrahydro-2H-pyrido[4,3-d]pyrimidin-1-yl]phenyl}acetamide]	20.86	> 250 nM	−1.30	0.77 nM	> 250 nM	36.3	80.4 nM	19.5	16.70	18.3 nM	81.4 nM	18.26	> 250 nM	55.8	30 nM	−11.8	94 nM	17.1	8.16 nM	13.02	IC50 [11]: 15 nM; Ymin/T0 [11]: −5.9; IC50 [12]: 139 nM; Ymin/T0 [12]: 12.44; IC50 [13]: 1.85 nM; Ymin/T0 [13]: 3.94
Cn1ncc(Cl)c1-c1cc(C(=O)N[C@H](CN)Cc2ccc(F)c(F)c2)oc1Cl [Compound B, N-{(1S)-2-amino-1-[(3,4-difluorophenyl)methyl]ethyl}-5-chloro-4-(4-chloro-1-methyl-1H-pyrazol-5-yl)-2-furancarboxamide]	71.87	> 1000 nM	14.87	> 1000 nM	> 1000 nM	41.5	> 1000 nM	49.6	20.44	758 nM	> 1000 nM	19.70	> 1000 nM	40.7	> 1000 nM	11.4	> 1000 nM	36.8	428 nM	11.68	IC50 [11]: > 1000 nM; Ymin/T0 [11]: 47.3; IC50 [12]: 427 nM; Ymin/T0 [12]: −5.58; IC50 [13]: 700 nM; Ymin/T0 [13]: 5.24
